According to patent US10993951B2, “Fosfomycin formulation for parenteral administration” (priority 2016, dated 2021):
≈ marks a conversion by molar mass, not a printed value. Where two headings read alike, the source gives them in different places.

What was measured:
Assay in all cases: MIC by tube dilution in microtiter plates, stored fosfomycin solution
Format in all cases: cell-based
Conditions in all cases: read-out: minimal inhibitory concentration (MIC)
[1] = tested on: Staphylococcus hominis AG 1115
[2] = tested on: Escherichia coli AG 1215
[3] = tested on: Staphylococcus hominis AG 1115; remark: listed apart in the source
Description: (§1) The objective of the present investigation was to find out whether the antimicrobial activity of fosfomycin with a pH suitable for intravenous administration is maintained in a solvent suitable for intravenous use. For this, fosfomycin disodium (14.5 mmol sodium/g) and succinic acid were used to adjust the pH (0.025 grams of succinic acid per gram of fosfomycin).
(§2) A stock solution of 4 g of fosfomycin disodium and succinic acid (0.025 grams of succinic acid per gram of fosfomycin, corresponding to about 3 g of fosfomycin) in 10 ml distilled water was prepared and divided into 5 cryotubes at 2 ml each, and the solution was exposed at different temperatures as follows:
(§3) Aliquots of 2 ml of the sample were stored at −80° C., at refrigerator temperature (2-8° C.), at room temperature (20-25° C.), and at 45-65° C. until the test end. Another 2 ml of the stock solution were stored at refrigerator temperature (2-8° C.) and autoclaved before the tests at 125° C. for 30 minutes. After that, all samples were tested for their antimicrobioal activity.
(§4) To determine the antimicrobial activity of fosfomycin, the minimal inhibitory concentration (MIC) of the 4 mentioned bacteria strains was determined by a tube dilution method in microtiter plates using Mueller-Hinton broth. For the inoculation of the microtiter plates, the inoculum was adjusted to 1.5×104 germs/ml. The evaluation was made after 24 hours of incubation at 37° C.
(§5) Samples were taken, starting with 2,000 μg/ml test substance, diluted by a factor 2. Serial dilutions of 2,000 μg/ml to […] were prepared.

[4] = tested on: Staphylococcus aureus ATTC 33592
Description: as §1, §2, §3, §4, §5

MIC ([1]; AG1115, 648 h, storage temp. 4-8 °C, storage period 27 days): 15.6 µg/mL (≈ 113 µM)
MIC ([1]; AG1115, storage temp. 4-8 °C, storage period 64 days): 15.6 µg/mL (≈ 113 µM)
MIC ([1]; AG1115, storage temp. 4-8 °C, storage period 92 days): 15.6 µg/mL (≈ 113 µM)
MIC ([2]; AG1215, 648 h, storage temp. 4-8 °C, storage period 27 days): 62.5 µg/mL (≈ 453 µM)
MIC ([2]; AG1215, storage temp. 4-8 °C, storage period 59 days): 62.5 µg/mL (≈ 453 µM)
MIC ([2]; AG1215, storage temp. 4-8 °C, storage period 64 days): 15.6 µg/mL (≈ 113 µM)
MIC ([3]; AG1115, 125 °C (refrigerator storage, autoclaved 30 minutes before tests), storage period 27 days): 15.6 µg/mL (≈ 113 µM)
MIC ([3]; AG1115, 125 °C (refrigerator storage, autoclaved 30 minutes before tests), storage period 31 days): 7.8 µg/mL (≈ 56.5 µM)
MIC ([3]; AG1115, 125 °C (refrigerator storage, autoclaved 30 minutes before tests), storage period 54 days): 7.8 µg/mL (≈ 56.5 µM)
MIC ([3]; AG1115, 125 °C (refrigerator storage, autoclaved 30 minutes before tests), storage period 59 days): 15.6 µg/mL (≈ 113 µM)
MIC ([3]; AG1115, 125 °C (refrigerator storage, autoclaved 30 minutes before tests), storage period 64 days): 31.2 µg/mL (≈ 226 µM)
MIC ([3]; AG1115, 125 °C (refrigerator storage, autoclaved 30 minutes before tests), storage period 92 days): 31.2 µg/mL (≈ 226 µM)
MIC ([3]; AG1115, 648 h, storage temp. 20-25 °C, storage period 27 days): 31.2 µg/mL (≈ 226 µM)
MIC ([3]; AG1115, 648 h, storage temp. 45-65 °C, storage period 27 days): 15.6 µg/mL (≈ 113 µM)
MIC ([3]; AG1115, 648 h, storage temp. −80 °C, storage period 27 days): 7.8 µg/mL (≈ 56.5 µM)
MIC ([3]; AG1115, storage temp. 4-8 °C, storage period 31 days): 7.8 µg/mL (≈ 56.5 µM)
MIC ([3]; AG1115, storage temp. 4-8 °C, storage period 54 days): 7.8 µg/mL (≈ 56.5 µM)
MIC ([3]; AG1115, storage temp. 4-8 °C, storage period 59 days): 15.6 µg/mL (≈ 113 µM)
MIC ([3]; AG1115, storage temp. 20-25 °C, storage period 31 days): 7.8 µg/mL (≈ 56.5 µM)
MIC ([3]; AG1115, storage temp. 20-25 °C, storage period 54 days): 15.6 µg/mL (≈ 113 µM)
MIC ([3]; AG1115, storage temp. 20-25 °C, storage period 59 days): 7.8 µg/mL (≈ 56.5 µM)
MIC ([3]; AG1115, storage temp. 20-25 °C, storage period 64 days): 31.2 µg/mL (≈ 226 µM)
MIC ([3]; AG1115, storage temp. 20-25 °C, storage period 92 days): 62.5 µg/mL (≈ 453 µM)
MIC ([3]; AG1115, storage temp. 45-65 °C, storage period 31 days): 3.9 µg/mL (≈ 28.2 µM)
MIC ([3]; AG1115, storage temp. 45-65 °C, storage period 54 days): 15.6 µg/mL (≈ 113 µM)
MIC ([3]; AG1115, storage temp. 45-65 °C, storage period 59 days): 15.6 µg/mL (≈ 113 µM)
MIC ([3]; AG1115, storage temp. 45-65 °C, storage period 64 days): 15.6 µg/mL (≈ 113 µM)
MIC ([3]; AG1115, storage temp. 45-65 °C, storage period 92 days): 62.5 µg/mL (≈ 453 µM)
MIC ([3]; AG1115, storage temp. −80 °C, storage period 31 days): 7.8 µg/mL (≈ 56.5 µM)
MIC ([3]; AG1115, storage temp. −80 °C, storage period 54 days): 7.8 µg/mL (≈ 56.5 µM)
MIC ([3]; AG1115, storage temp. −80 °C, storage period 59 days): 15.6 µg/mL (≈ 113 µM)
MIC ([3]; AG1115, storage temp. −80 °C, storage period 64 days): 15.6 µg/mL (≈ 113 µM)
MIC ([3]; AG1115, storage temp. −80 °C, storage period 92 days): 15.6 µg/mL (≈ 113 µM)
MIC ([4]; ATTC33592, 0 h, storage temp. 20-25 °C, storage period 0 days): 7.8 µg/mL (≈ 56.5 µM)
MIC ([4]; ATTC33592, 0 h, storage temp. 45-65 °C, storage period 0 days): 15.6 µg/mL (≈ 113 µM)
MIC ([4]; ATTC33592, 0 h, storage temp. −80 °C, storage period 0 days): 15.6 µg/mL (≈ 113 µM)
MIC ([4]; ATTC33592, 125 °C (refrigerator storage, autoclaved 30 minutes before tests), storage period 0 days): 15.6 µg/mL (≈ 113 µM)
MIC ([4]; ATTC33592, 125 °C (refrigerator storage, autoclaved 30 minutes before tests), storage period 19 days): 31.2 µg/mL (≈ 226 µM)
MIC ([4]; ATTC33592, 125 °C (refrigerator storage, autoclaved 30 minutes before tests), storage period 31 days): 7.8 µg/mL (≈ 56.5 µM)
MIC ([4]; ATTC33592, 456 h, storage temp. 20-25 °C, storage period 19 days): 15.6 µg/mL (≈ 113 µM)
MIC ([4]; ATTC33592, 456 h, storage temp. 45-65 °C, storage period 19 days): 31.2 µg/mL (≈ 226 µM)
MIC ([4]; ATTC33592, 456 h, storage temp. −80 °C, storage period 19 days): 7.8 µg/mL (≈ 56.5 µM)
MIC ([4]; ATTC33592, storage temp. 20-25 °C, storage period 31 days): 7.8 µg/mL (≈ 56.5 µM)
MIC ([4]; ATTC33592, storage temp. 45-65 °C, storage period 31 days): 7.8 µg/mL (≈ 56.5 µM)
MIC ([4]; ATTC33592, storage temp. −80 °C, storage period 31 days): 7.8 µg/mL (≈ 56.5 µM)
Compound: C[C@@H]1O[C@@H]1P(=O)(O)O [Fosfomycin, fosfomycin]
